# Data as given in patent US11358959B2, “Benzothiophene and benzothiazole compounds and methods of use thereof” (Araxes Pharma LLC, priority 2017, dated 2022).
# Biological target: T1, KRAS G12C 1-169, his-tagged protein, GDP-loaded (Homo sapiens, UniProt P01116, G12C)
# T1 construct: KRAS G12C 1-169, his-tagged protein, GDP-loaded; His
# Experiment: Biochemical assay: covalent binding to KRAS G12C by mass spectrometry
# Conditions: covalently bind to KRAS G12C after a thirty minute incubation period
# Procedure: Test compounds were prepared as 10 mM stock solutions in DMSO (Fisher cat #BP-231-100). KRAS G12C 1-169, his-tagged protein, GDP-loaded was diluted to 2 μM or 0.5 μM in buffer (20 mM Hepes, 150 mM NaCl, 1 mM MgCl2). Compounds were tested for activity as follows:
# Compounds were diluted to 50× final test concentration in DMSO in 96-well storage plates. Compound stock solutions were vortexed before use and observed carefully for any sign of precipitation. Dilutions were as follow: • For 100 μM final compound concentration, compounds were diluted to 5000 μM (5 μL 10 mM compound stock+5 μL DMSO and mixed well by pipetting. • For 30 […] final compound concentration, compounds were diluted to 1500 μM (3 μL 10 mM compound stock+17 μL DMSO) and mixed well by pipetting. • For 10 μM final compound concentration, compounds were diluted to 500 μM (2 μL 10 mM compound stock+38 μL DMSO) and mixed well by pipetting. 49 μL of the stock protein solution was added to each well of a 96-well PCR plate (Fisher cat #1423027). 1 μl of the diluted 50× compounds were added to appropriate wells in the PCR plate using 12-channel pipettor. Reactions were mixed carefully and thoroughly by pipetting up/down with a 200 μL multi-channel pipettor. The plate was sealed well with aluminum plate seal, and stored in drawer at room temperature for 10 minutes, 30 minutes, 2 hours or 24 hours. 5 μL of 2% formic acid (Fisher cat #A117) in de-ionized H2O was then added to each well followed by mixing with a pipette. The plate was then resealed with aluminum seal and stored on dry ice until analyzed as described below.
# The above described assays were analyzed by mass spectrometry according to one of the following two procedures:
# The MS instrument is set to positive polarity, 2 GHz resolution, and low mass (1700) mode and allowed to equilibrate for 30 minutes. The instrument is then calibrated, switched to acquisition mode and the appropriate method loaded.
# After another 30 minute equilibration time, a blank batch (i.e., buffer) is run to ensure equipment is operating properly. The samples are thawed at 37° C. for 10 minutes, briefly centrifuged, and transfer to the bench top. Wells A1 and H12 are spiked with 1 μL 500 μM internal standard peptide, and the plates centrifuged at 2000×g for 5 minutes. The method is then run and masses of each individual well recorded.
# The masses (for which integration data is desired) for each well are pasted into the platemap and exported from the analysis. Masses for the internal standards are exported as well. The data at 50 ppm is extracted for the +19 charge state, and identity of well A1 is assigned using the internal standard spike and integrated. Peak data is exported as a TOF list and the above steps are repeated individually, for the +20, 21, 22, 23, 24, and 25 charge states.
# The masses and peak intensities of KRAS G12C protein species were measured using a Dionex RSLCnano system (Thermo Scientific) connected to a Q Exactive Plus mass spectrometer (Thermo Scientific).
# […] of sample was each loaded onto a Aeris™ 3.6 μm WIDEPORE C4 200 Å, LC Column 50×2.1 mm column maintained at 40° C. at a flow rate of 600 μL/min with 20% Solvent A (0.1% formic acid in H2O) and 80% Solvent B (0.1% formic acid in acetonitrile). The liquid chromatography conditions were 20% solvent B for 1 minute, 20% to 60% solvent B for 1.5 minutes, 60% to 90% solvent for 0.5 minute, 90% solvent B for 0.2 minute, 90% to 20% solvent B for 0.2 minute, and then equilibrated for 1.6 minute before the following sample injection. The flow rate was maintained at 600 μL/min throughout the sample analysis.
# The mass spectrometer was operated in profile mode at a resolution of 17500, 5 microscans, using 50 msec max injection time and an AGC target of 1×10^6, and a full mass range from 800-1850 m/z was recorded. The HCD trapping gas was optimized for maximum sensitivity for intact proteins. […]
# T1 sequence (P01116 1-169 isoform P01116-2 G12C): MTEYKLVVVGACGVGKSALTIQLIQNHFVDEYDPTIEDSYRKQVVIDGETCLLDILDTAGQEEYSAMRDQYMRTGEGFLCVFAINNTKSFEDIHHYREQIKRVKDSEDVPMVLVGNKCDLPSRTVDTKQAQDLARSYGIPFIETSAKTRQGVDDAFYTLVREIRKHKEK
row,Structure (SMILES),Binding %
1,"C=CC(=O)N1CC(c2ccc3cc(-c4cc(O)cc5ccccc45)sc3c2)C1 [Compound 1, 1-(3-(2-(3-hydroxynaphthalen-1-yl)benzo[b]thiophen-6-yl)azetidin-1-yl)prop-2-en-1-one]",+++ (+++ indicates binding activity greater than 50%)
2,"C=CC(=O)N1CC(c2ccc3cc(-c4c(C)ccc5[nH]ncc45)sc3c2)C1 [Compound 2, 1-(3-(2-(5-methyl-1H-indazol-4-yl)benzo[b]thiophen-6-yl)azetidin-1-yl)prop-2-en-1-one]",++ (++ indicates binding activity from 10 to 50%)
3,"C=CC(=O)N1CC(c2ccc3nc(-c4c(C)ccc5[nH]ncc45)sc3c2)C1 [Compound 3, 1-(3-(2-(5-methyl-1H-indazol-4-yl)benzo[d]thiazol-6-yl)azetidin-1-yl)prop-2-en-1-one]",+ (+ indicates binding activity up to 10%)
4,"C=CC(=O)N1CC(c2ccc3nc(-c4cc(O)cc5ccccc45)sc3c2)C1 [Compound 4, 1-(3-(2-(3-hydroxynaphthalen-1-yl)benzo[d]thiazol-6-yl)azetidin-1-yl)prop-2-en-1-on]",+++ (+++ indicates binding activity greater than 50%)
5,"C=CC(=O)N1CC(c2ccc3nc(-c4cc(O)cc5ccccc45)oc3c2)C1 [Compound 5, 1-(3-(2-(3-hydroxynaphthalen-1-yl)benzo[d]oxazol-6-yl)azetidin-1-yl)prop-2-en-1-one]",+++ (+++ indicates binding activity greater than 50%)
6,"C=CC(=O)N1CC(c2ccc3nc(-c4c(C)ccc5[nH]ncc45)oc3c2)C1 [Compound 6, 1-(3-(2-(5-methyl-1H-indazol-4-yl)benzo[d]oxazol-6-yl)azetidin-1-yl)prop-2-en-1-one]",++ (++ indicates binding activity from 10 to 50%)
